# Set-up: species or system patients
# Settings: in vivo
compound,measurement,value
CCOC(=O)C1=C[C@@H](OC(CC)CC)[C@H](NC(C)=O)[C@@H](N)C1 [oseltamivir],"Time to alleviation of symptoms, shorter in treated vs non‐treated patients",1 days

# Reference: article PMC5820429 (Influenza and Other Respiratory Viruses, 2018)
